Target: T1, SAMHD1 (Homo sapiens, UniProt Q9Y3Z3)
T1 construct: recombinant SAMHD1 with N-terminal GST tag
Assay: TLC-based [γ-32P]-dTTP triphosphohydrolase kinetics; HPLC dGTP hydrolysis assay
Assay type: biochemical

T1 sequence (Q9Y3Z3 whole entry): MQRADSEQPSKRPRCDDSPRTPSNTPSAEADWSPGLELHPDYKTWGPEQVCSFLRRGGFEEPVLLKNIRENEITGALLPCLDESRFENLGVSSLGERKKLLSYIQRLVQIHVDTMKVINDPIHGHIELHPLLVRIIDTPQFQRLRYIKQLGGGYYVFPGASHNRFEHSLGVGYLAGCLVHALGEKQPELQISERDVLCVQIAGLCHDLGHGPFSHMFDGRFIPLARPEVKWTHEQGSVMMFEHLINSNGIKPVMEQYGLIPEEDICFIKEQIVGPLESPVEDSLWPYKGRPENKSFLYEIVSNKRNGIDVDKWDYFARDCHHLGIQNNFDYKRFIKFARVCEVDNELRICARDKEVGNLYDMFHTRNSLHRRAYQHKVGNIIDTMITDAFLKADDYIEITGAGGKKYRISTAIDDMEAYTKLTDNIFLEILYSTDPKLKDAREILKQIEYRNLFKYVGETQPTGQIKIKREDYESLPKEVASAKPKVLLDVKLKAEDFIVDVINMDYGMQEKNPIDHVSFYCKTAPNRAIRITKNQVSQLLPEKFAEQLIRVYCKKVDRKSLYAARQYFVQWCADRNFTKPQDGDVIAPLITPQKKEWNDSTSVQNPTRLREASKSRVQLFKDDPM

## C[C@H]1[C@H](O)[C@@H](COP(=O)(O)OP(=O)(O)OP(=O)(O)O)O[C@H]1n1ccc(=O)[nH]c1=O [SMDU-TP]
  Ki: 256 ± 70 µM

Source: paper PMC5207538, “Substrates and Inhibitors of SAMHD1” (PLoS ONE, 2017)
